In patent US12398120B2, “Substituted hydantoinamides as ADAMTS7 antagonists” (BAYER AKTIENGESELLSCHAFT, priority 2019, dated 2025):

Molecular target: ADAMTS4 (Homo sapiens (Human), UniProt O75173)
Assay: Selectivity assay for ADAMTS-7 modulators: ADAMTS4 (FRET substrate)
Assay type: biochemical
Details: ADAMTS4 (R&D 4307-AD) 50 nM, substrate Dabcyl-EEVKAKVQPY-Glu(Edans)-NH2 1 μM, 120 min, 32° C.
How it was run: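 Human ADAMTS4 with compound in DMSO, or DMSO control; reaction started by adding FRET substrate in reaction buffer. Fluorescence increase measured at substrate-specific wavelengths. IC50 derived from % inhibition of enzyme activity versus compound concentration.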

Sequence of ADAMTS4 (O75173 213-685): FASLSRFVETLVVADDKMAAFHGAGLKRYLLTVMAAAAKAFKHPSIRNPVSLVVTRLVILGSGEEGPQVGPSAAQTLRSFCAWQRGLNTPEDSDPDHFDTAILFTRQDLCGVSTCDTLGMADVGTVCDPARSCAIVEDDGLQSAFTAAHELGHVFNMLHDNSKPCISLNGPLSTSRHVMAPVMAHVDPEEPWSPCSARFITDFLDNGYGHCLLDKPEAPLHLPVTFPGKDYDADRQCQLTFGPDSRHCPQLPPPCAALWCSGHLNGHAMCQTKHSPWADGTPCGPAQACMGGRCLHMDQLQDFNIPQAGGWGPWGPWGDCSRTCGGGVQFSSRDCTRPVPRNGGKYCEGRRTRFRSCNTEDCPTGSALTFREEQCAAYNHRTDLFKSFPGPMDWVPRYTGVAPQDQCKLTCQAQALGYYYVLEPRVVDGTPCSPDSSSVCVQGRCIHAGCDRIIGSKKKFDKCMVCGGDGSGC

Compound	IC50
O=C1NC(=O)C(CNC(=O)c2ccc(F)cc2-c2ccc(C(F)(F)F)cc2)(C23CC(F)(C2)C3)N1 (racemic) [Example 293, Rac-5-Fluoro-N-{[4-(3-Fluorobicyclo[1.1.1]Pentan-1-Yl)-2,5-Dioxoimidazolidin-4-Yl]Methyl}-4′-(Trifluoromethyl)[Biphenyl]-2-Carboxamide]	> 50 µM
O=C1NC(=O)C(CNC(=O)c2ccc(F)c(F)c2-c2ccc(C(F)(F)F)cc2)(C23CC(F)(C2)C3)N1 (racemic) [Example 295, Rac-5,6-Difluoro-N-{[4-(3-Fluorobicyclo[1.1.1]Pentan-1-Yl)-2,5-Dioxoimidazolidin-4-Yl]Methyl}-4′-(Trifluoromethyl)[Biphenyl]-2-Carboxamide]	> 50 µM
O=C1NC(=O)C(CNC(=O)c2cccc(F)c2-c2ccc(C(F)(F)F)cc2)(C2(F)CC2)N1 (racemic) [Example 299, Rac-6-Fluoro-N-{[4-(1-Fluorocyclopropyl)-2,5-Dioxoimidazolidin-4-Yl]Methyl}-4′-(Trifluoromethyl)[Biphenyl]-2-Carboxamide]	19 µM
Cc1sc(C(F)(F)F)nc1C1(CNC(=O)c2ccc(F)cc2-c2ccc(C(F)(F)F)cc2)NC(=O)NC1=O (racemic) [Example 303, Rac-5-Fluoro-N-({4-[5-Methyl-2-(Trifluoromethyl)-1,3-Thiazol-4-Yl]-2,5-Dioxoimidazolidin-4-Yl}Methyl)-4′-(Trifluoromethyl)[Biphenyl]-2-Carboxamide]	38 µM
Cc1cc(C2(CNC(=O)c3ccc(F)c(F)c3-c3ccc(C(F)(F)F)cc3)NC(=O)NC2=O)nn1C (racemic) [Example 305, Rac-N-{[4-(1,5-Dimethyl-1H-Pyrazol-3-Yl)-2,5-Dioxoimidazolidin-4-Yl]Methyl}-5,6-Difluoro-4′-(Trifluoromethyl)[Biphenyl]-2-Carboxamide]	28 µM
Cc1nscc1C1(CNC(=O)c2ccc(F)c(F)c2-c2ccc(C(F)(F)F)cc2)NC(=O)NC1=O (racemic) [Example 306, Rac-5,6-Difluoro-N-{[4-(3-Methyl-1,2-Thiazol-4-Yl)-2,5-Dioxoimidazolidin-4-Yl]Methyl}-4′-(Trifluoromethyl)[Biphenyl]-2-Carboxamide]	16 µM
Cn1ccc(C2(CNC(=O)c3ccc(F)c(F)c3-c3ccc(C(F)(F)F)cc3)NC(=O)NC2=O)n1 (racemic) [Example 307, Rac-5,6-Difluoro-N-{[4-(1-Methyl-1H-Pyrazol-3-Yl)-2,5-Dioxoimidazolidin-4-Yl]Methyl}-4′-(Trifluoromethyl)[Biphenyl]-2-Carboxamide]	23 µM
Cc1c(C2(CNC(=O)c3ccc(F)c(F)c3-c3ccc(C(F)(F)F)cc3)NC(=O)NC2=O)cnn1C (racemic) [Example 316, Rac-N-{[4-(1,5-Dimethyl-1H-Pyrazol-4-Yl)-2,5-Dioxoimidazolidin-4-Yl]Methyl}-5,6-Difluoro-4′-(Trifluoromethyl)[Biphenyl]-2-Carboxamide]	12 µM
Cc1scnc1C1(CNC(=O)c2ccccc2-c2ccc(C(F)(F)F)cc2)NC(=O)NC1=O (single isomer, unassigned) [Example 2, Ent-N-{[4-(5-Methyl-1,3-Thiazol-4-Yl)-2,5-Dioxoimidazolidin-4-Yl]Methyl}-4′-(Trifluoromethyl)[Biphenyl]-2-Carboxamide]	> 50 µM
Cc1ccc(C(=O)NC[C@@]2(C3CC3)NC(=O)NC2=O)c(-c2ccc(C3CC3(F)F)cc2)c1 (single isomer, unassigned) [Example 137]	13 µM
Cn1nccc1C1(CNC(=O)c2c(F)cccc2-c2ccc(C(F)(F)F)cc2)NC(=O)NC1=O (single isomer, unassigned; ent-3) [Example 186, Ent-3-Fluoro-N-{[4-(1-Methyl-1H-Pyrazol-5-Yl)-2,5-Dioxoimidazolidin-4-Yl]Methyl}-4′-(Trifluoromethyl)[Biphenyl]-2-Carboxamide]	24 µM
Cn1nccc1C1(CNC(=O)c2ccccc2-c2ccc(Cl)c(Cl)c2)NC(=O)NC1=O (single isomer, unassigned; ent-3) [Example 311, Ent-3′,4′-Dichloro-N-{[4-(1-Methyl-1H-Pyrazol-5-Yl)-2,5-Dioxoimidazolidin-4-Yl]Methyl}[Biphenyl]-2-Carboxamide]	11 µM
Cc1scnc1C1(CNC(=O)c2cc(F)c(F)cc2-c2ccc(C(F)(F)F)cc2)NC(=O)NC1=O (single isomer, unassigned; ent-4) [Example 17, Ent-4,5-Difluoro-N-{[4-(5-Methyl-1,3-Thiazol-4-Yl)-2,5-Dioxoimidazolidin-4-Yl]Methyl}-4′-(Trifluoromethyl)[Biphenyl]-2-Carboxamide]	7.1 µM
Cc1scnc1C1(CNC(=O)c2cc(Cl)ccc2-c2ccc(C(F)(F)F)cc2)NC(=O)NC1=O (single isomer, unassigned; ent-4) [Example 18, Ent-4-Chloro-N-{[4-(5-Methyl-1,3-Thiazol-4-Yl)-2,5-Dioxoimidazolidin-4-Yl]Methyl}-4′-(Trifluoromethyl)[Biphenyl]-2-Carboxamide]	41 µM
Cn1ccnc1C1(CNC(=O)c2ccccc2-c2ccc(Cl)cc2)NC(=O)NC1=O (single isomer, unassigned; ent-4) [Example 155, Ent-4′-Chloro-N-{[4-(1-Methyl-1H-Imidazol-2-Yl)-2,5-Dioxoimidazolidin-4-Yl]Methyl}[Biphenyl]-2-Carboxamide]	5.9 µM

More lines, now with the values ahead:

IC50	Compound
3.3 µM	Cc1c(C2(CNC(=O)c3ccc(F)cc3-c3ccc(C(F)(F)F)cc3)NC(=O)NC2=O)ncn1C (racemic) [Example 304, Rac-N-{[4-(1,5-Dimethyl-1H-Imidazol-4-Yl)-2,5-Dioxoimidazolidin-4-Yl]Methyl}-5-Fluoro-4′-(Trifluoromethyl)[Biphenyl]-2-Carboxamide]
1.3 µM	O=C1NC(=O)C(CNC(=O)c2ccc(F)c(F)c2-c2ccc(C(F)(F)F)cc2)(c2ccnn2-c2ccccc2)N1 (racemic) [Example 315, Rac-N-{[2,5-Dioxo-4-(1-Phenyl-1H-Pyrazol-5-Yl)Imidazolidin-4-Yl]Methyl}-5,6-Difluoro-4′-(Trifluoromethyl)[Biphenyl]-2-Carboxamide]
4.8 µM	Cc1scnc1C1(CNC(=O)c2ccccc2-c2ccc(C(F)(F)F)cc2)NC(=O)NC1=O (single isomer, unassigned) [Example 3, Ent-N-{[4-(5-Methyl-1,3-Thiazol-4-Yl)-2,5-Dioxoimidazolidin-4-Yl]Methyl}-4′-(Trifluoromethyl)[Biphenyl]-2-Carboxamide]
4.9 µM	Cc1ccc(C(=O)NC[C@@]2(C3CC3)NC(=O)NC2=O)c(-c2ccc(C3CC3(F)F)cc2)c1 (single isomer, unassigned) [Example 138]
3.75 µM	Cn1ccnc1C1(CNC(=O)c2c(F)cccc2-c2ccc(C(F)(F)F)cc2)NC(=O)NC1=O (single isomer, unassigned; ent-3) [Example 159, Ent-3-Fluoro-N-{[4-(1-Methyl-1H-Imidazol-2-Yl)-2,5-Dioxoimidazolidin-4-Yl]Methyl}-4′-(Trifluoromethyl)[Biphenyl]-2-Carboxamide]
3.65 µM	Cn1nccc1C1(CNC(=O)c2c(Cl)cccc2-c2ccc(Cl)cc2)NC(=O)NC1=O (single isomer, unassigned; ent-3) [Example 189, Ent-3,4′-Dichloro-N-{[4-(1-Methyl-1H-Pyrazol-5-Yl)-2,5-Dioxoimidazolidin-4-Yl]Methyl}[Biphenyl]-2-Carboxamide]
4.8 µM	Cc1ncsc1C1(CNC(=O)c2ccccc2-c2ccc(Cl)cc2)NC(=O)NC1=O (single isomer, unassigned; ent-4) [Example 9, Ent-4′-Chloro-N-{[4-(4-Methyl-1,3-Thiazol-5-Yl)-2,5-Dioxoimidazolidin-4-Yl]Methyl}[Biphenyl]-2-Carboxamide]
5.9 µM	Cc1ncsc1C1(CNC(=O)c2cc(F)ccc2-c2ccc(C(F)(F)F)cc2)NC(=O)NC1=O (single isomer, unassigned; ent-4) [Example 11, Ent-4-Fluoro-N-{[4-(4-Methyl-1,3-Thiazol-5-Yl)-2,5-Dioxoimidazolidin-4-Yl]Methyl}-4′-(Trifluoromethyl)[Biphenyl]-2-Carboxamide]
1.4 µM	Cc1ccc(-c2c(C)cccc2C(=O)NCC2(c3nccn3C)NC(=O)NC2=O)cc1 (single isomer, unassigned; ent-4) [Example 134, Ent-4′,6-Dimethyl-N-{[4-(1-Methyl-1H-Imidazol-2-Yl)-2,5-Dioxoimidazoidin-4-Yl]Methyl}[1,1′-Biphenyl]-2-Carboxamide]
1.9 µM	Cc1ccc(-c2ccccc2C(=O)NCC2(c3nccn3C)NC(=O)NC2=O)cc1 (single isomer, unassigned; ent-4) [Example 146, Ent-4′-Methyl-N-{[4-(1-Methyl-1H-Imidazol-2-Yl)-2,5-Dioxoimidazolidin-4-Yl]Methyl}[Biphenyl]-2-Carboxamide]
1.15 µM	Cn1ccnc1C1(CNC(=O)c2cc(F)ccc2-c2ccc(C(F)(F)F)cc2)NC(=O)NC1=O (single isomer, unassigned; ent-4) [Example 149, Ent-4-Fluoro-N-{[4-(1-Methyl-1H-Imidazol-2-Yl)-2,5-Dioxoimidazolidin-4-Yl]Methyl}-4′-(Trifluoromethyl)[Biphenyl]-2-Carboxamide]
0.705 µM	Cc1ccc(-c2ccc(F)cc2C(=O)NCC2(c3nccn3C)NC(=O)NC2=O)cc1 (single isomer, unassigned; ent-4) [Example 152, Ent-4-Fluoro-4′-Methyl-N-{[4-(1-Methyl-1H-Imidazol-2-Yl)-2,5-Dioxoimidazolidin-4-Yl]Methyl}[Biphenyl]-2-Carboxamide]
3.95 µM	Cn1ccnc1C1(CNC(=O)c2cc(F)c(F)cc2-c2ccc(C(F)(F)F)cc2)NC(=O)NC1=O (single isomer, unassigned; ent-4) [Example 154, Ent-4,5-Difluoro-N-{[4-(1-Methyl-1H-Imidazol-2-Yl)-2,5-Dioxoimidazolidin-4-Yl]Methyl}-4′-(Trifluoromethyl)[Biphenyl]-2-Carboxamide]
